Earlier results as cited in patent US20260248929A1, “MINOXIDIL-CROSSLINKED INJECTABLE HYDROGELS FOR LOCAL AND SUSTAINED INTRADERMAL DELIVER Y” (THE TRUSTEES OF THE UNIVERSITY OF PENNSYLVANIA, priority 2023, published 2026).

Settings: topical application to skin

minoxidil absorbed from a topical application: 1%
SMILES: Nc1cc(N2CCCCC2)nc(N)[n+]1[O-] [minoxidil]
